Reference: patent publication US11951109B2, “EZH2 inhibitors for treating lymphoma” (Epizyme, Inc., priority 2015, dated 2024)

How the values were obtained:
HT = assay: Combination of EPZ-6438 and other therapeutic agents (4+3 model), HT; settings: WT EZH2 GCB
TMD8 = assay: Combination of EPZ-6438 and other therapeutic agents (4+3 model), TMD8; settings: WT EXH2 ABC
RC-K8 = assay: Combination of EPZ-6438 and other therapeutic agents (4+3 model), RC-K8; settings: WT EXH2 ABC
SUDHL5 = assay: Combination of EPZ-6438 and other therapeutic agents (4+3 model), SUDHL5; settings: for combination effect with EPZ-6438, SUDHL5: WT EZH2 GCB
Farage = assay: Combination of EPZ-6438 and other therapeutic agents (4+3 model), Farage; settings: WT EZH2 GCB
SUDHL2 = assay: Combination of EPZ-6438 and other therapeutic agents (4+3 model), SUDHL2; settings: WT EXH2 ABC
OCI-LY7 = assay: Combination of EPZ-6438 and other therapeutic agents (4+3 model), OCI-LY7; settings: WT EZH2 GCB
OCI-LY3 = assay: Combination of EPZ-6438 and other therapeutic agents (4+3 model), OCI-LY3; settings: WT EXH2 ABC
SU-DHL-6 = assay: Combination of EPZ-6438 and other therapeutic agents (4+3 model), SU-DHL-6; settings: for combination effect with EPZ-6438, SU-DHL-6: Mutant EZH2 GCB; for combination effect with EPZ-6438, SU-DHL-6 (mutant EZH2 GC): Table 3
WSU-DLCL2 = assay: Combination of EPZ-6438 and other therapeutic agents (4+3 model), WSU-DLCL2; settings: for combination effect with EPZ-6438, WSU-DLCL2: Mutant EZH2 GCB, EPZ-6438 4 days then co-treatment 3 days (4+3 model); for combination effect with EPZ-6438, WSU-DLCL2 (mutant EZH2 GC): Table 3, 4+3 model
SU-DHL-10 = assay: Combination of EPZ-6438 and other therapeutic agents (4+3 model), SU-DHL-10; settings: for combination effect with EPZ-6438, SU-DHL-10: Mutant EZH2 GCB; for combination effect with EPZ-6438, SU-DHL-10 (mutant EZH2 GC): Table 3
KARPAS-422 = assay: Combination of EPZ-6438 and other therapeutic agents (4+3 model), KARPAS-422; settings: Mutant EZH2 GCB
DOHH2 = assay: Combination of EPZ-6438 and other therapeutic agents (4+3 model), DOHH2; format: cell-based; settings: for combination effect with EPZ-6438, DOHH2 (WT EZH2 GC): Table 3; for combination effect with EPZ-6438, DOHH2: WT EZH2 GCB
Toledo = settings: Table 3; 4+3 model
OCI-LY19 = assay: Combination of EPZ-6438 and other therapeutic agents (4+3 model), OCI-LY19; settings: 4+3 model; for combination effect with EPZ-6438, OCI-LY19: WT EZH2 GCB

| SMILES | combination effect with EPZ-6438, HT (HT) | combination effect with EPZ-6438, TMD8 (TMD8) | combination effect with EPZ-6438, RC-K8 (RC-K8) | combination effect with EPZ-6438, SUDHL5 (SUDHL5) | combination effect with EPZ-6438, Farage (Farage) | combination effect with EPZ-6438, SUDHL2 (SUDHL2) | combination effect with EPZ-6438, OCI-LY7 (OCI-LY7) | combination effect with EPZ-6438, OCI-LY3 (OCI-LY3) | combination effect with EPZ-6438, SU-DHL-6 (SU-DHL-6) | combination effect with EPZ-6438, WSU-DLCL2 (WSU-DLCL2) | combination effect with EPZ-6438, SU-DHL-10 (SU-DHL-10) | combination effect with EPZ-6438, KARPAS-422 (KARPAS-422) | combination effect with EPZ-6438, DOHH2 (WT EZH2 GC) (DOHH2) | combination effect with EPZ-6438, Toledo (WT EZH2 ABC) (Toledo) | combination effect with EPZ-6438, SU-DHL-6 (mutant EZH2 GC) (SU-DHL-6) | combination effect with EPZ-6438, WSU-DLCL2 (mutant EZH2 GC) (WSU-DLCL2) | combination effect with EPZ-6438, SU-DHL-10 (mutant EZH2 GC) (SU-DHL-10) | combination effect with EPZ-6438, OCI-LY19 (OCI-LY19) | other results |
| --- | --- | --- | --- | --- | --- | --- | --- | --- | --- | --- | --- | --- | --- | --- | --- | --- | --- | --- | --- |
| CO[C@H]1C[C@@H]2CC[C@@H](C)[C@@](O)(O2)C(=O)C(=O)N2CCCC[C@H]2C(=O)O[C@H]([C@H](C)C[C@@H]2CC[C@@H](OCCO)[C@H](OC)C2)CC(=O)[C@H](C)/C=C(\C)[C@@H](O)[C@@H](OC)C(=O)[C@H](C)C[C@H](C)/C=C/C=C/C=C/1C [Everolimus] | S | S | S | S | S | S | S | S | S | S | S | ADD. | – | – | – | – | – | – | – |
| C=CC(=O)N1CCC[C@@H](n2nc(-c3ccc(Oc4ccccc4)cc3)c3c(N)ncnc32)C1 [Ibrutinib] | S | S | ADD. | S | S | ADD. | S | ADD. | S | S | S | S | – | – | – | – | – | – | – |
| CC[C@]1(O)C[C@H]2CN(CCc3c([nH]c4ccccc34)[C@@](C(=O)OC)(c3cc4c(cc3OC)N(C=O)[C@H]3[C@@](O)(C(=O)OC)[C@H](OC(C)=O)[C@]5(CC)C=CCN6CC[C@]43[C@@H]65)C2)C1 [Vincristine] | – | – | – | – | – | – | – | – | – | – | – | – | No effect | No effect | Additive | Additive | Additive | – | – |
| C[C@]12C=CC(=O)C=C1CC[C@@H]1[C@@H]2[C@@H](O)C[C@@]2(C)[C@H]1CC[C@]2(O)C(=O)CO [Prednisolone] | – | S | S | S | S | S | S | S | S | S | S | S | Synergy | No effect | Synergy | Synergy | Synergy | S | combination effect with EPZ-6438, DOHH2 (DOHH2): S; combination effect with EPZ-6438, SU-DHL-5 (WT EZH2 GC) (SUDHL5; Table 3): Synergy; combination effect with EPZ-6438, OCI-LY-19 (WT EZH2 GC) (OCI-LY19; Table 3): Synergy |
| COc1cc(Nc2ncc(F)c(Nc3ccc4c(n3)NC(=O)C(C)(C)O4)n2)cc(OC)c1OC [Tamatinib] | S | S | – | S | S | S | S | S | S | S | S | S | – | – | – | – | – | – | – |
| C[C@@H]1C[C@H]2[C@@H]3CCC4=CC(=O)C=C[C@]4(C)[C@@]3(F)[C@@H](O)C[C@]2(C)[C@@]1(O)C(=O)CO [Dexamethasone] | – | S | S | S | S | S | S | S | S | S | S | S | – | No effect | – | – | – | S | combination effect with EPZ-6438, DOHH2 (DOHH2): S |
| NC1(c2ccc(-c3nc4ccn5c(=O)[nH]nc5c4cc3-c3ccccc3)cc2)CCC1 [MK-2206] | S | S | S | S | S | – | S | S | S | S | S | S | – | – | – | – | – | S | – |
| COc1cccc2c1C(=O)c1c(O)c3c(c(O)c1C2=O)C[C@@](O)(C(=O)CO)C[C@@H]3O[C@H]1C[C@H](N)[C@H](O)[C@H](C)O1 [Doxorubicin] | – | – | – | – | – | – | – | – | – | – | – | – | No effect | No effect | Additive | Synergy | Additive | – | – |
